Measured values as given in PubChem BioAssay AID2060363 (Molecular Pharmacology Branch, DTP, NCI, 2025).

Tested on: 156681-154-R-J1-PDC tumor spheroids, viability % test/control
Experiment: Anticancer human tumor 156681-154-R-J1-PDC patient-derived melanoma cell line growth inhibition [TAK]
Conditions: spheroids with HUVEC and MSC; for IC50: curve of first compound; for viability, T/C: stronger effect = lower value
In short: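 Tumor cells were grown as spheroids with HUVEC and hMSC (60:25:15) and treated with targeted agents combined with TAK-243 or ipatasertib. Drugs were tested in half-log steps down from near the clinical Cmax, or from 10 microM where Cmax was unknown.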
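Further: spheroids exposed to compounds for 7 days before the endpoint.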

## CC(C)CC(NC(=O)CNC(=O)c1cc(Cl)ccc1Cl)B1OC(=O)CC(CC(=O)O)(C(=O)O)O1 (stereo not given) + CC(C)NCC(C(=O)N1CCN(c2ncnc3c2C(C)CC3O)CC1)c1ccc(Cl)cc1
Second compound 0.3 µM
  IC50: 18 nM
Second compound 0.949 µM
  IC50: 17.1 nM
Second compound 3 µM
  IC50: 12.2 nM
Second compound 9.49 µM
  IC50: < 0.316 nM
Second compound 30 µM
  IC50: < 0.316 nM
Second compound 0.3 µM, first compound 0.000316 µM
  viability, T/C: 96.8%
Second compound 0.3 µM, first compound 0.001 µM
  viability, T/C: 86.9%
Second compound 0.3 µM, first compound 0.00316 µM
  viability, T/C: 94.9%
Second compound 0.3 µM, first compound 0.01 µM
  viability, T/C: 88%
Second compound 0.3 µM, first compound 0.0316 µM
  viability, T/C: 13.8%
Second compound 0.3 µM, first compound 0.1 µM
  viability, T/C: 0.27%
Second compound 0.949 µM, first compound 0.000316 µM
  viability, T/C: 88.7%
Second compound 0.949 µM, first compound 0.001 µM
  viability, T/C: 87.7%
Second compound 0.949 µM, first compound 0.00316 µM
  viability, T/C: 90.2%
Second compound 0.949 µM, first compound 0.01 µM
  viability, T/C: 82.1%
Second compound 0.949 µM, first compound 0.0316 µM
  viability, T/C: 13.2%
Second compound 0.949 µM, first compound 0.1 µM
  viability, T/C: 0.34%
Second compound 3 µM, first compound 0.000316 µM
  viability, T/C: 79.4%
Second compound 3 µM, first compound 0.001 µM
  viability, T/C: 76.9%
Second compound 3 µM, first compound 0.00316 µM
  viability, T/C: 78.9%
Second compound 3 µM, first compound 0.01 µM
  viability, T/C: 58.8%
Second compound 3 µM, first compound 0.0316 µM
  viability, T/C: 8.09%
Second compound 3 µM, first compound 0.1 µM
  viability, T/C: 0.23%
Second compound 9.49 µM, first compound 0.000316 µM
  viability, T/C: 43.3%
Second compound 9.49 µM, first compound 0.001 µM
  viability, T/C: 41.5%
Second compound 9.49 µM, first compound 0.00316 µM
  viability, T/C: 42%
Second compound 9.49 µM, first compound 0.01 µM
  viability, T/C: 40.9%
Second compound 9.49 µM, first compound 0.0316 µM
  viability, T/C: 4.19%
Second compound 9.49 µM, first compound 0.1 µM
  viability, T/C: 0.25%
Second compound 30 µM, first compound 0.000316 µM
  viability, T/C: 17.5%
Second compound 30 µM, first compound 0.001 µM
  viability, T/C: 20.3%
Second compound 30 µM, first compound 0.00316 µM
  viability, T/C: 18.5%
Second compound 30 µM, first compound 0.01 µM
  viability, T/C: 15.4%
Second compound 30 µM, first compound 0.0316 µM
  viability, T/C: 2.17%
Second compound 30 µM, first compound 0.1 µM
  viability, T/C: 0.28%
